{
  "source": "PubChem BioAssay (NCI)",
  "assay_in_all_cases": "DTP human tumour cell line panel, 384-well format",
  "key": {"[1]": {"test_system": "RXF 393 renal"}, "[2]": {"test_system": "MDA-MB-468 breast"}, "[3]": {"test_system": "SF-268 CNS"}, "[4]": {"test_system": "NCI-H460 NSCLC"}, "[5]": {"test_system": "U251 glioblastoma"}, "[6]": {"test_system": "MCF7 breast"}, "[7]": {"test_system": "MDA-MB-231 breast"}, "[8]": {"test_system": "SNB-19 CNS"}, "[9]": {"test_system": "SK-MEL-28 melanoma"}, "[10]": {"test_system": "ACHN renal"}, "[11]": {"test_system": "BT-549 breast"}, "[12]": {"test_system": "UO-31 renal"}, "[13]": {"test_system": "IGROV1 ovarian"}, "[14]": {"test_system": "CAKI-1 renal"}, "[15]": {"test_system": "SK-MEL-2 melanoma"}, "[16]": {"test_system": "MOLT-4 leukemia"}, "[17]": {"test_system": "HCT-116 colon"}, "[18]": {"test_system": "SF-539 CNS"}, "[19]": {"test_system": "K-562 leukemia"}, "[20]": {"test_system": "OVCAR-4 ovarian"}, "[21]": {"test_system": "HT29 colon"}, "[22]": {"test_system": "NCI-H226 lung"}, "[23]": {"test_system": "SK-MEL-5 melanoma"}, "[24]": {"test_system": "NCI/ADR-RES ovarian"}, "[25]": {"test_system": "HOP-62 NSCLC"}, "[26]": {"test_system": "KM12 colon"}, "[27]": {"test_system": "UACC-257 melanoma"}, "[28]": {"test_system": "NCI-H322M lung"}, "[29]": {"test_system": "A549 NSCLC"}},
  "note": "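GI50 marks 50% less growth. At the TGI there is no net growth.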",
  "data": [
    {"smiles": "COc1ccc([C@H](CC(=O)O)N2CCN(CCCc3ccc4c(n3)NCCC4)C2=O)cn1", "values": [
      {"measurement": "TGI", "setting": "[1]", "result": 0.0412, "unit": "µM"},
      {"measurement": "GI50", "setting": "[2]", "result": 23.3, "unit": "µM"},
      {"measurement": "TGI", "setting": "[2]", "result": 68.8, "unit": "µM"},
      {"measurement": "GI50", "setting": "[3]", "result": 0.336, "unit": "µM"},
      {"measurement": "TGI", "setting": "[3]", "result": 28.1, "unit": "µM"},
      {"measurement": "GI50", "setting": "[4]", "result": 20.3, "unit": "µM"},
      {"measurement": "TGI", "setting": "[4]", "result": "> 100", "unit": "µM"},
      {"measurement": "GI50", "setting": "[5]", "result": 0.561, "unit": "µM"},
      {"measurement": "TGI", "setting": "[5]", "result": "> 100", "unit": "µM"},
      {"measurement": "GI50", "setting": "[6]", "result": 30.6, "unit": "µM"},
      {"measurement": "TGI", "setting": "[6]", "result": "> 100", "unit": "µM"},
      {"measurement": "GI50", "setting": "[7]", "result": 1.73, "unit": "µM"},
      {"measurement": "TGI", "setting": "[7]", "result": 78.3, "unit": "µM"},
      {"measurement": "GI50", "setting": "[8]", "result": 0.302, "unit": "µM"},
      {"measurement": "TGI", "setting": "[8]", "result": "> 100", "unit": "µM"},
      {"measurement": "GI50", "setting": "[9]", "result": 44.5, "unit": "µM"},
      {"measurement": "TGI", "setting": "[9]", "result": "> 100", "unit": "µM"},
      {"measurement": "GI50", "setting": "[10]", "result": 0.516, "unit": "µM"},
      {"measurement": "TGI", "setting": "[10]", "result": 52.3, "unit": "µM"},
      {"measurement": "GI50", "setting": "[11]", "result": 0.162, "unit": "µM"},
      {"measurement": "TGI", "setting": "[11]", "result": 0.564, "unit": "µM"},
      {"measurement": "GI50", "setting": "[12]", "result": 1.29, "unit": "µM"},
      {"measurement": "TGI", "setting": "[12]", "result": 8.86, "unit": "µM"},
      {"measurement": "GI50", "setting": "[13]", "result": 0.914, "unit": "µM"},
      {"measurement": "TGI", "setting": "[13]", "result": 15.9, "unit": "µM"},
      {"measurement": "GI50", "setting": "[14]", "result": 0.023, "unit": "µM"},
      {"measurement": "TGI", "setting": "[14]", "result": 0.132, "unit": "µM"},
      {"measurement": "GI50", "setting": "[15]", "result": 0.0476, "unit": "µM"},
      {"measurement": "TGI", "setting": "[15]", "result": "> 100", "unit": "µM"},
      {"measurement": "GI50", "setting": "[16]", "result": 21.5, "unit": "µM"},
      {"measurement": "TGI", "setting": "[16]", "result": 66.3, "unit": "µM"},
      {"measurement": "GI50", "setting": "[17]", "result": 35.3, "unit": "µM"},
      {"measurement": "TGI", "setting": "[17]", "result": "> 100", "unit": "µM"},
      {"measurement": "GI50", "setting": "[18]", "result": 10.1, "unit": "µM"},
      {"measurement": "TGI", "setting": "[18]", "result": 49.2, "unit": "µM"},
      {"measurement": "GI50", "setting": "[19]", "result": 65.8, "unit": "µM"},
      {"measurement": "TGI", "setting": "[19]", "result": "> 100", "unit": "µM"},
      {"measurement": "GI50", "setting": "[20]", "result": 0.0228, "unit": "µM"},
      {"measurement": "TGI", "setting": "[20]", "result": 15.2, "unit": "µM"},
      {"measurement": "GI50", "setting": "[21]", "result": 32.5, "unit": "µM"},
      {"measurement": "TGI", "setting": "[21]", "result": "> 100", "unit": "µM"},
      {"measurement": "GI50", "setting": "[22]", "result": 1.61, "unit": "µM"},
      {"measurement": "TGI", "setting": "[22]", "result": 42.6, "unit": "µM"},
      {"measurement": "GI50", "setting": "[23]", "result": 83.8, "unit": "µM"},
      {"measurement": "TGI", "setting": "[23]", "result": "> 100", "unit": "µM"},
      {"measurement": "GI50", "setting": "[24]", "result": "> 100", "unit": "µM"},
      {"measurement": "TGI", "setting": "[24]", "result": "> 100", "unit": "µM"},
      {"measurement": "GI50", "setting": "[25]", "result": 1.24, "unit": "µM"},
      {"measurement": "TGI", "setting": "[25]", "result": 21.7, "unit": "µM"},
      {"measurement": "GI50", "setting": "[26]", "result": 55.7, "unit": "µM"},
      {"measurement": "TGI", "setting": "[26]", "result": "> 100", "unit": "µM"},
      {"measurement": "GI50", "setting": "[27]", "result": 44.7, "unit": "µM"},
      {"measurement": "TGI", "setting": "[27]", "result": "> 100", "unit": "µM"},
      {"measurement": "GI50", "setting": "[28]", "result": 52.6, "unit": "µM"},
      {"measurement": "TGI", "setting": "[28]", "result": "> 100", "unit": "µM"},
      {"measurement": "GI50", "setting": "[29]", "result": 7.2, "unit": "µM"}
    ]}
  ]
}
